What was measured:
[1] = Detection of the absorption peak of the fluorescent dyes (UV-visible spectrophotometer, after standing at different temperatures); format: physicochemical; conditions: for Maximum absorption peak of the compounds disclosed: methanol/ethylene glycol (50:50 vol/vol), light-proof; for Maximum absorption peak: methanol/ethylene glycol, given with the synthesis example
Experimental: A certain amount of an asymmetric cyanine compound was accurately weighed and sufficiently dissolved in 2.5 mL of methanol/ethylene glycol solution (50:50 vol/vol) to prepare a fluorescent dye solution at a concentration of 5 mM. Four parts of 5 μL aliquots of the fluorescent dye solution were each diluted in 2 mL of methanol/ethylene glycol solution (50:50 vol/vol) and were let stand under a hermetic and light-proof condition at 0° C., 20° C., 40° C. and 60° C. respectively for 48 hours. The maximum absorption peak was detected using a ultraviolet-visible spectrophotometer.

salmon sperm DNA = assay: Fluorescence intensity of dye in PBS containing salmon sperm DNA; format: binding; conditions: for Relative fluorescence intensity, after binding DNA: bound with salmon sperm DNA; for Maximum excitation peak of the dye/DNA complexes: room temperature; for Ratio of increase in fluorescence (after vs before binding): salmon sperm DNA in PBS; for Fluorescence emission strength of the dye/DNA complexes: with increase in DNA concentration / on complex formation, PBS
Experimental: A certain amount of Dye-1 was accurately weighed and sufficiently dissolved in 2.5 mL of methanol/ethylene glycol (50:50 vol/vol) to prepare a dye solution at a concentration of 5 mM. This solution was filtered before use. Separate amounts of salmon sperm DNA were weighed and dissolved in PBS to obtain PBS buffers containing 3 mg/mL, 1 mg/mL, 0.3 mg/mL, 0.1 mg/mL of DNA. 2 μL aliquots of the prepared 5 mM dye solution were accurately measured and respectively combined in 1 mL of PBS with 1 μL of the PBS buffers containing different concentrations of DNA. After reacting for a period of time, the complexes were detected for their emission spectra at the selected excitation wavelength (which the skilled artisan would understand is the maximum absorption wavelength of the dye. See, e.g., Table 1). The detection was performed at room temperature. The instrument used was fluorescence spectrophotometer Model FL-4500. […] The detection procedures followed were those described in Example 10 and Example 11. The fluorescence spectra for the complexes of Dye-3 and different concentrations of DNA or RNA are shown in FIG. 6 and FIG. 7, respectively. The comparisons of fluorescence intensity for Dye-3 before and after it is bound with DNA or with RNA in PBS are shown in FIG. 8 and FIG. 9, respectively.

[2] = test system: soft-shelled turtle (Trionyx sinensis) liver RNA; assay: Fluorescence intensity of dye in PBS containing soft-shelled turtle liver RNA; format: binding; conditions: for Relative fluorescence intensity, after binding RNA / Maximum excitation peak of the dye/RNA complexes / Relative fluorescence intensity, before binding RNA: in PBS; for Relative fluorescence intensity, after binding RNA: bound with soft-shelled turtle liver RNA; for Maximum excitation peak of the dye/RNA complexes: room temperature; for Relative fluorescence intensity, before binding RNA: without RNA; for Ratio of increase in fluorescence (after vs before binding): soft-shelled turtle liver RNA in PBS; for Fluorescence emission strength of the dye/RNA complexes: with increase in RNA concentration / on complex formation, PBS
Experimental: A certain amount of Dye-1 was accurately weighed and sufficiently dissolved in 2.5 mL of methanol/ethylene glycol (50:50 vol/vol) to prepare a dye solution at a concentration of 5 mM. This solution was filtered before use. Separate amounts of freshly prepared soft-shelled turtle (Trionyx sinensis) liver RNA were weighed and dissolved in PBS to obtain PBS buffers containing 100 μg/mL, 30 μg/mL, 10 μg/mL, 3 μg/mL of RNA. 2 μL aliquots of the prepared 5 mM dye solution were accurately measured and respectively combined in 1 mL of PBS with 1 μL of the PBS buffers containing different concentrations of RNA. After reacting for a period of time, the complexes were detected for their emission spectra at the selected excitation wavelength (which the skilled artisan would understand is the maximum absorption wavelength of the dye. See, e.g., Table 1). The detection temperature was at room temperature. The instrument used was fluorescence spectrophotometer Model FL-4500. […] The detection procedures followed were those described in Example 10 and Example 11. The fluorescence spectra for the complexes of Dye-3 and different concentrations of DNA or RNA are shown in FIG. 6 and FIG. 7, respectively. The comparisons of fluorescence intensity for Dye-3 before and after it is bound with DNA or with RNA in PBS are shown in FIG. 8 and FIG. 9, respectively.

[3] = after standing at 0° C. for 48 hours
[4] = after standing at 20° C. for 48 hours
[5] = after standing at 40° C. for 48 hours
[6] = after standing at 60° C. for 48 hours

SMILES	Maximum absorption peak of the compounds disclosed [1, 3]	Maximum absorption peak of the compounds disclosed [1, 4]	Maximum absorption peak of the compounds disclosed [1, 5]	Maximum absorption peak of the compounds disclosed [1, 6]	Maximum absorption peak [1]	Relative fluorescence intensity, after binding DNA (salmon sperm DNA; in PBS)	Maximum excitation peak of the dye/DNA complexes (salmon sperm DNA; in PBS)	Ratio of increase in fluorescence (after vs before binding) (salmon sperm DNA)	Fluorescence emission strength of the dye/DNA complexes (salmon sperm DNA)	Relative fluorescence intensity, after binding RNA [2]	Maximum excitation peak of the dye/RNA complexes [2]	Relative fluorescence intensity, before binding RNA [2]	Ratio of increase in fluorescence (after vs before binding) [2]	Fluorescence emission strength of the dye/RNA complexes [2]	Shift of the position of the maximum absorption peak as a function of temperature ([1]; 0° C., 20° C., 40° C. and 60° C. for 48 hours)	Relative fluorescence intensity, before binding DNA (salmon sperm DNA; in PBS, without salmon sperm DNA)
OCCN1C=C/C(=C\C=C\c2sc3ccc(Cl)cc3[n+]2CCO)c2ccccc21 [Dye-1]	638 nm	638 nm	638 nm	638 nm	638 nm	63.29	about 660 nm	84	increased rapidly	16.79	about 660 nm	0.75	22.4	increased rapidly	–	–
CCN1C=C/C(=C\C=C\c2sc3ccccc3[n+]2CCOC(C)=O)c2ccc(Cl)cc21 [Dye-2]	639 nm	639 nm	639 nm	639 nm	639 nm	–	–	–	–	–	–	–	–	–	–	–
CC[n+]1c(/C=C/C=C2\C=CN(CCO)c3ccccc32)sc2ccc(Cl)cc21 [Dye-3]	–	–	–	–	640 nm	97.56	> 655 nm	146	increased rapidly	23.94	> 655 nm	0.67	35.7	increased rapidly	did not shift	0.67
CCN1C=C/C(=C\C=C\c2sc3ccccc3[n+]2CCO)c2ccc(Cl)cc21 [Dye-4]	639 nm	639 nm	639 nm	639 nm	639 nm	–	–	–	–	–	–	–	–	–	–	–
CC[n+]1c(/C=C/C=C2\C=CN(CCO)c3ccccc32)sc2ccc(Br)cc21 [Dye-5]	640 nm	640 nm	640 nm	640 nm	640 nm	–	–	–	–	–	–	–	–	–	–	–
OCCN1C=C/C(=C\C=C\c2sc3ccccc3[n+]2CCO)c2ccc(Br)cc21 [Dye-6]	638 nm	638 nm	638 nm	638 nm	638 nm	–	–	–	–	–	–	–	–	–	–	–
